Source: PubChem BioAssay AID651672 (The Scripps Research Institute Molecular Screening Center, 2012)
The source made the active and inactive calls. The rule behind the calls is not given here.

Biological target: Perilipin-1 (Homo sapiens) (UniProt O60240)
Test: ABHD5 and perilipin-1 interaction blockers – biochemical, luminescence, counter-screen for ABHD5-PLIN5 interaction inhibitor project, dose response (AID 651672);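 note: split Gaussia luciferase complementation between ABHD5 and PLIN1 fusion fragments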
Settings: ABHD5-PLIN1 interaction

Sequence of Perilipin-1 (Homo sapiens) (O60240 whole entry, looked up, the tested form may be a part): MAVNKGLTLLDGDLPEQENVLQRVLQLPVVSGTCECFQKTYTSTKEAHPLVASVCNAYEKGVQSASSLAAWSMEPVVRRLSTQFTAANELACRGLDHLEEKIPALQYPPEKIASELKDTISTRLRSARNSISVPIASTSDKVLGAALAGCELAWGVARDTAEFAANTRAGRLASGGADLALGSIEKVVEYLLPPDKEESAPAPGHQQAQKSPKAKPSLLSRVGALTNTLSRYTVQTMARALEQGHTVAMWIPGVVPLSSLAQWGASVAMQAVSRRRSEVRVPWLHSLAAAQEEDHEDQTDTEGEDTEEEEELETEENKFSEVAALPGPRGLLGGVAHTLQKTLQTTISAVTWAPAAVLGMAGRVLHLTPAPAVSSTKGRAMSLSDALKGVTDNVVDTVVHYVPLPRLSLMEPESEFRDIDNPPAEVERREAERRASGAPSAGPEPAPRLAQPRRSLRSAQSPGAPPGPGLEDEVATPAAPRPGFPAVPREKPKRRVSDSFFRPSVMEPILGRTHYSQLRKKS

Row | SMILES | IC50
1 | COc1ccc(C)c2sc(N(CCN(C)C)C(=O)/C=C/c3cccs3)nc12 | inactive
2 | O=C(NC1CCCCC1)C(c1ccnc2ccccc12)n1c(=O)c(-c2ccco2)nc2ccccc21 (configuration not stated) | 2.25 µM
3 | Cc1ccc(NC(=O)CSc2nnc(-c3ccco3)c(-c3ccco3)n2)cc1 | 2.66 µM
4 | CC(=O)Cc1cc(O)c2ccccc2c1OC(=O)c1ccc(Br)cc1 | 1.6 µM
5 | CC(C)(C)NC(=O)C(c1cccc2ccccc12)n1c(=O)c(-c2ccco2)nc2ccccc21 (configuration not stated) | 2.04 µM
6 | Cc1cccc(C)c1OCc1cn(CC(=O)c2ccc(O)cc2)nn1 | 2.98 µM
7 | CSc1nnc(NC(=O)c2nc(S(=O)(=O)Cc3ccccc3)ncc2Cl)s1 | 3.27 µM
8 | Cc1cccc(C)c1NC(=O)C(c1cccc2ccccc12)n1c(=O)c(-c2ccco2)nc2ccccc21 (configuration not stated) | 2.4 µM
9 | COc1ccc(/C=C\C(=O)CC(O)(c2ccccc2)C(F)(F)F)cc1 (configuration not stated) | 2.68 µM
10 | CCOC(=O)c1c(NC(=O)/C=C/C(=O)O)sc(C)c1-c1ccc(C(C)(C)C)cc1 | 4.81 µM
11 | CCSc1ccc2c(c1)N(CCCN1CCN(C)CC1)c1ccccc1S2 | 6.35 µM
12 | CCN(CC)CCN(CC(=O)Nc1c(C)cc(C)cc1C)C(=O)c1ccccc1 | inactive
13 | O=C(NC1CCCCC1)C(c1cc2ccccc2o1)n1c(=O)c(-c2ccco2)nc2ccccc21 (configuration not stated) | 1.29 µM
14 | Cc1ccc2nc3cc([N+](=O)[O-])cc([N+](=O)[O-])c3cc2c1 | 0.801 µM
15 | COc1cc(/C=C/C(=O)c2ccc(Cl)s2)cc(OC)c1O | 4.59 µM
16 | CC(=O)Nc1ccc(OCc2cn(CC(=O)c3ccc(O)cc3)nn2)cc1 | 2.47 µM
17 | CC(c1nc2ccccc2[nH]1)n1c(=O)c(-c2ccco2)nc2ccccc21 (configuration not stated) | 3.37 µM
18 | CC(CCc1ccco1)NC(=O)CCc1nnc2ccc(NCc3ccccc3Cl)nn12 (configuration not stated) | 2.03 µM
19 | CCOC(=O)c1c(C)oc2c1c(CN1CCN(CCO)CC1)c(O)c1ccccc12 | 1.81 µM

Row | SMILES | IC50
20 | O=C(/C(=C/c1ccccc1)n1cncn1)c1ccc(Cl)cc1Cl | 2.3 µM
21 | CCN1CCN(Cc2ccc(NC(=O)c3ccc(C)c(/C=C/c4cnc(Nc5cc(N6CCNCC6)nc(C)n5)cn4)c3)cc2C(F)(F)F)CC1 | 3.42 µM
22 | N#Cc1ccccc1OCc1cn(CC(=O)c2ccc(O)cc2)nn1 | 4.12 µM
23 | CCN(CC)CCOc1ccc(/C(=C(\Cl)c2ccccc2)c2ccccc2)cc1 | 2.23 µM
24 | COc1ccc(OCc2cn(CC(=O)c3ccc(O)cc3)nn2)cc1 | 3.77 µM
25 | NC(=O)C(C(=O)/C=C/c1ccc(Cl)cc1)=C1SCCS1 | inactive
26 | CCOC(=O)C1C(OC(=O)c2ccccc2)CC2CCC1N2C (configuration not stated) | inactive
27 | CC(C)(C)NC(=O)C(c1ccnc2ccccc12)n1c(=O)c(-c2ccco2)nc2ccccc21 (configuration not stated) | 4.29 µM
28 | CC1CCN(S(=O)(=O)c2ccc(NC(=O)Cc3cccs3)cc2)CC1 | 7.02 µM
29 | O=C(NC1CCCCC1)C(c1ccc(C(F)(F)F)cc1)n1c(=O)c(-c2ccco2)nc2ccccc21 (configuration not stated) | 1.67 µM
30 | CSc1nnc(NC(=O)c2nc(S(=O)(=O)Cc3ccccc3F)ncc2Cl)s1 | 2.16 µM
31 | CCOC(=O)c1c(NC(C)=O)sc2c1CCC(C=O)=C2Sc1ccccc1 | 3.11 µM
32 | CN1CCC(=C2c3ccccc3CC(=O)c3sccc32)CC1 | inactive
33 | CC1(C)C2CCC(CN=C(N)CSS(=O)(=O)O)C1C2 (configuration not stated) | 4.29 µM
34 | O=C(NC1CCCCC1)C(C1CC1)n1c(=O)c(-c2ccco2)nc2ccccc21 (configuration not stated) | 3.11 µM
35 | Cc1nc2c(o1)CCc1ccccc1C2N1CCN(C)CC1 (configuration not stated) | inactive
36 | CC(C)c1ccc(N2C=Nc3ccc(C(C)C)cc3C2)cc1 | 7.98 µM
37 | O=C1CC(c2ccc(Cl)cc2)Oc2ccc(Cl)cc21 (configuration not stated) | 2.95 µM
